Consider one molecule from patent US12257214B2, “Compositions and methods comprising deoxy-pentitols” (The Charlotte Mecklenburg Hospital Authority, priority 2021, dated 2025).

Structures are written as SMILES.

One data set has as its system DU 145. Put plainly: ATPlite cell IC50 screening, DU 145. The class given is cell-based. Particulars: Homo sapiens; DU 145, Prostate carcinoma; ATPlite luminescence. On the procedure: (§1) In brief, the cells were cultures in relevant medium and treated with a range of 9 doses of 2-deoxyribitol, from 10 mM, 5 mM, 2.5 mM, 1.25 mM, 0.62 mM, 0.31 mM, 0.08 mM, and 0.04 mM. Cells were diluted in the corresponding ATCC recommended medium and dispensed in a 384-well plate, depending on the cell line used, at a density of 100-6400 cells per well in 45 μl medium. For each used cell line the optimal cell density was used. The margins of the plate were filled with phosphate-buffered saline. Plated cells were incubated in a humidified atmosphere of 5% CO2 at 37° C. After 24 hours, 5 μl of compound dilution was added and plates were further incubated. At the end of experiment (t=end), 24 μl of ATPlite 1Step™ (PerkinElmer) solution was added to each well, and subsequently shaken for 2 minutes. After 10 minutes of incubation in the dark, the luminescence was recorded on an Envision multimode reader (PerkinElmer). IC50 was determined in comparison with the control samples. The cell lines tested and their corresponding disease model is indicated the left-most and middle columns, respectively. IC50 values are given in μM values in the right-most column. This screening was performed of a list of cancer cells to establish IC50 values for each of the cancer cell lines. This screening provides evidence for the potential of 2DR to treat many cancer types.
In general terms: Cellular ATP, detected with luciferase, serves as a proxy for viable cell number.

A further data set relates to NCI-H82. The data set can be described thus: ATPlite cell IC50 screening, NCI-H82. Format: cell-based. Particulars: Homo sapiens; NCI-H82, Small cell lung carcinoma; ATPlite luminescence. On the procedure: as §1
The subject of the next data set is 786-O. The data set can be described thus: ATPlite cell IC50 screening, 786-O. The class given is cell-based. As to conditions: Homo sapiens, 786-0, Renal cell carcinoma, ATPlite luminescence. As for the experimental part:
as §1

For the next data set, the system named is DB. Put plainly: ATPlite cell IC50 screening, DB. Format: cell-based. As to conditions: Homo sapiens, Diffuse large B-cell lymphoma, ATPlite luminescence. As for the experimental part: as §1
For data set [1], the system named is alpha dystroglycan (α-DG). Put plainly: Glycosylation of alpha dystroglycan. Format: cell-based. From the text:
This invention applies a synthetic molecule, 2-deoxyribitol, to treat cancer for growth inhibition and cancer cell killing. Naturally-occurring ribitol is a metabolite, but its metabolic pathway has not been clearly defined. Recently, ribitol has been identified as a precursor of CDP-ribitol, the substrate used for the synthesis of sugar modification of a membrane protein, alpha dystroglycan (α-DG). […] The loss or reduced expression of glycosylation of α-DG has been linked to cancer progression and metastasis in breast and other cancers in clinics, and enhanced glycosylation of α-DG may inhibit cancer cell growth and tumorigenicity. This study screened several different pentose and pentitol molecules including ribose, 2-deoxyribose, ribulose, 2-deoxyribitol, xylose, and xylitol to evaluate these sugar molecules for the effects of enhancing glycosylation of α-DG and inhibiting cancer cell growth/tumorigenicity.

A further data set is described as follows: Storage stability. Format: physicochemical. As to conditions: 4 degrees Celsius, highly stable. From the text:
It can be delivered by direct application to local areas, given orally or through vasculature system. 2-deoxyribitol can also be delivered before, at the same time, or after the use of other drugs. 2-deoxyribitol can be applied as treatment for cancers before, at the same time, or after any other treatment procedure(s). In addition, the effect of 2-deoxyribitol on three tissue types of cancers indicate that it can be applied for many other epithelial cancers.

Another data set relates to BT-549. Put plainly: ATPlite cell IC50 screening, BT-549. Format: cell-based. Particulars: Homo sapiens; BT-549, Invasive ductal carcinoma; ATPlite luminescence. As for the experimental part: as §1
In the next data set the test system is HT. The data set can be described thus: ATPlite cell IC50 screening, HT. Particulars: Homo sapiens, Diffuse large B-cell lymphoma, ATPlite luminescence. The class given is cell-based. As for the experimental part:
as §1

For another data set, the system named is 5637. Put plainly: ATPlite cell IC50 screening, 5637. The class given is cell-based. As to conditions: 5637, Bladder carcinoma; ATPlite luminescence. As for the experimental part: as §1
Data set [2] deals with hepatocarcinoma HEPG2 cells. Put plainly: HEPG2 cell culture, growth and death (FIG. 6). Format: cell-based. As for the experimental part: The cells grow into large sheets (Control; top left panel), but remain tightly packed with limited cytoplasm. Cells were treated with 5 mM (top middle panel), 10 mM (top right panel), 20 mM (bottom left panel), or 40 mM (bottom right panel) 2-deoxyribitol (Drug). A dose-dependent decrease in cell density and increase in volume of cytoplasm is observed with the drug treatment.
2-deoxyribitol was also found to be effective at inhibiting the growth of and inducing cell death in the hepatocarcinoma cell HEPG2. […] HEPG2 cells have a clonal growth pattern with tightly-packed cells growing out to fill the surrounding empty space. […] Small numbers of cell death were also detected in the remaining narrow areas where the size of the cells was relatively smaller than those of surrounding cells.

The test system of data set [3] is MDA231 cells (triple negative breast cancer cell). Put plainly: MDA231 cell growth. Format: cell-based. As for the experimental part:
(§2) However, this effect was not related to the enhanced expression of glycosylation of α-DG.
Less than 50% of cells and 10% of cells were detected with the treatment of 10 mM and 50 mM 2-deoxyribitol, respectively.

The next data set deals with COLO 205. Put plainly: ATPlite cell IC50 screening, COLO 205. The class given is cell-based. Particulars: Homo sapiens; COLO 205, Colon adenocarcinoma; ATPlite luminescence. On the procedure: as §1
The next data set deals with RS4-11. Put plainly: ATPlite cell IC50 screening, RS4-11. The class given is cell-based. Particulars: Homo sapiens; RS4-11, Adult B acute lymphoblastic leukemia; ATPlite luminescence. On the procedure: as §1
A further data set has as its system SW900. Put plainly: ATPlite cell IC50 screening, SW900. The class given is cell-based. Particulars: Homo sapiens; SW900, Squamous cell lung carcinoma; ATPlite luminescence. As for the experimental part:
as §1

Another data set concerns RL95-2. Put plainly: ATPlite cell IC50 screening, RL95-2. Format: cell-based. Particulars: Homo sapiens; RL95-2, Endometrial adenosquamous carcinoma; ATPlite luminescence. As for the experimental part:
as §1

The subject of another data set is CCRF-CEM. The data set can be described thus: ATPlite cell IC50 screening, CCRF-CEM. As to conditions: Homo sapiens, Childhood T acute lymphoblastic leukemia, ATPlite luminescence. Format: cell-based. On the procedure:
as §1

The subject of the next data set is THP-1. Put plainly: ATPlite cell IC50 screening, THP-1. The class given is cell-based. As to conditions: Homo sapiens; THP-1, Childhood acute monocytic leukemia; ATPlite luminescence. As for the experimental part:
as §1

Another data set concerns SW620. Put plainly: ATPlite cell IC50 screening, SW620. Format: cell-based. As to conditions: Homo sapiens, SW-620; SW620, Colon adenocarcinoma; ATPlite luminescence. As for the experimental part:
as §1

In a further data set the test system is SR. Put plainly: ATPlite cell IC50 screening, SR. The class given is cell-based. As to conditions: Homo sapiens, Anaplastic large cell lymphoma, ATPlite luminescence. On the procedure: as §1
The subject of another data set is DU4475. The data set can be described thus: ATPlite cell IC50 screening, DU4475. The class given is cell-based. As to conditions: Homo sapiens, DU-4475; DU4475, Breast carcinoma; ATPlite luminescence. On the procedure:
as §1

Data set [4] deals with breast cancer cell line MCF7. Put plainly: MCF7 cell culture, growth and death (FIG. 2). The class given is cell-based. Particulars: 3 day treatment. As for the experimental part:
From left-top-to-bottom: Control, 0.4 mM Drug, 2 mM rib, and 10 mM Drug; From right-top-to-bottom: 0.4 mM rib; 2 mM Drug; 10 mM rib; and 50 mM Drug.
as §2

Usually IC50 stands for the point on the concentration scale where inhibition reaches its midpoint. As to `OCC[C@H](O)[C@H](O)CO` [2-deoxyribitol], the IC50 in the data set on DU 145 stood at 4.87 mM; with NCI-H82 it was 2.94 mM; with 786-O, 8.57 mM; in the data set with DB it was 4.08 mM; in the data set with BT-549, 4.27 mM; in the data set with HT it was 6.89 mM. For the same molecule, the half-inhibitory concentration (IC50) in the data set on 5637 worked out at 9.33 mM; with COLO 205, 4.54 mM; with RS4-11 it was 3.06 mM; in the data set on SW900 it was 3.19 mM; in the data set with RL95-2, 6.42 mM; with CCRF-CEM, 5.97 mM. Moreover, the IC50 stood at 5.19 mM in the data set with THP-1, 5.22 mM in the data set on SW620, 4.25 mM with SR and 5.72 mM in the data set on DU4475. In [1], the “glycosylation of α-DG” value is recorded as “did not enhance glycosylation of α-DG”. Moreover, in “Storage stability”, the stability on storage result was “at least 6 months”. In addition, in data set [2] (HEPG2, 5-40 mM), the “effect on number of cells and cytoplasm” value is “decreased the number of cells with increasing amount of cytoplasm dose-dependently”. In addition, the “cell size relative to control cells” value in data set [2] (HEPG2, majority of cells, dose of 20 mM or higher) is listed as “three or more times larger”. Moreover, in data set [3] (MDA231, concentrations lower than 10 mM), the “inhibitory effect as seen in MCF7 (growth / anchorage independent growth)” value is recorded as “clearly demonstrated”. Besides, the inhibiting cell growth result in data set [3] (MDA231 cells) is reported as “had an effect on inhibiting cell growth”. The “effect on cell growth, death and morphology” value in data set [4] (MCF7, 0.4-50 mM) is “dose-dependent inhibition in cell growth and increase in cell death”. Further, the “cells survive compared to the control” value in [4] (MCF7, dose of 10 mM or higher) is “about 10%”.
